Legend:
[1] = system: HCV replicon in Huh7 cells; assay: HCV replicon cell-based assay; parameters: species or system HCV strain 1B; conditions: Hepatitis C virus, Huh-7, 96 h; HCV replicon, Huh7 cells, 4 days; activity ranges; read-out: EC50
Method in brief: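 Genotype 1b subgenomic replicon Huh7 cells exposed to compound 4 days at 37° C in 4% FCS, 0.5% DMSO medium. EC50 from TaqMan RT-PCR of HCV RNA, normalized to total RNA by RiboGreen; CC50 from alamar Blue fluorescence after 4 h.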

[2] = molecular target: HCV NS3/4A protease complex (Hepatitis C virus genotype 1a, UniProt P27958, C1454S/C1711G); assay: Recombinant HCV NS3/4A protease complex FRET peptide assay (strain not stated); assay type: biochemical; conditions: IC50, NS3/4A protease enzyme assay, strain not stated; activity ranges
Sequence of HCV NS3/4A protease complex (P27958 1027-1711, stated change not applied): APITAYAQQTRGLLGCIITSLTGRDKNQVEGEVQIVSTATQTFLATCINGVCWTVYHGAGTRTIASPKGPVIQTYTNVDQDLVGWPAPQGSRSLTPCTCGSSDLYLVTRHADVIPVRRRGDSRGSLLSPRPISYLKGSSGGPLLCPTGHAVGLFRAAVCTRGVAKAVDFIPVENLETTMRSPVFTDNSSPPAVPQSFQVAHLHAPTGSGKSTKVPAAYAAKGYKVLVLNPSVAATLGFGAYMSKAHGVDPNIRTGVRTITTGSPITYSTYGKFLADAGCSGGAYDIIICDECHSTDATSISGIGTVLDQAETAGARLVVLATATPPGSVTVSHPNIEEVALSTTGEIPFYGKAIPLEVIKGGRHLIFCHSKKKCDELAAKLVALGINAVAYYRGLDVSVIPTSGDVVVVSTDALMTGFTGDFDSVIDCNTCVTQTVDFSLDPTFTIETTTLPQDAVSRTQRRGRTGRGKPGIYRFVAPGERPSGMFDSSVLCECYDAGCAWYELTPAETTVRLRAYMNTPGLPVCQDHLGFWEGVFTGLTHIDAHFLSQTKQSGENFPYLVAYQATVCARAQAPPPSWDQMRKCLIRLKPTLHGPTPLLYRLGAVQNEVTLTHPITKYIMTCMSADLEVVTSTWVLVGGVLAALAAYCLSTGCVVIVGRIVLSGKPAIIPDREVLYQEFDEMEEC
Sequence of HCV NS3/4A protease complex (P27958 1027-1711, stated change not applied): as above

SMILES | EC50 [1] | IC50 [2]
C=CC1C[C@]1(NC(=O)[C@@H]1C[C@@H](Oc2cc(-c3ccccc3)nc3cc(OC)ccc23)CN1C(=O)C(NC(=O)OC(C)(C)C)C(C)(C)C)C(=O)NS(=O)(=O)c1ccccc1I (stereo partly drawn) [Compound 56] | < 500 nM | < 50 nM
C=CC1C[C@]1(NC(=O)[C@@H]1C[C@@H](Oc2cc(-c3ccccc3)nc3cc(OC)ccc23)CN1C(=O)C(NC(=O)OC(C)(C)C)C(C)(C)C)C(=O)NS(=O)(=O)c1ccccc1C(=O)OC (stereo partly drawn) [Compound 57] | < 500 nM | < 500 nM
C=CC1C[C@]1(NC(=O)[C@@H]1C[C@@H](Oc2cc(-c3ccccc3)nc3cc(OC)ccc23)CN1C(=O)C(NC(=O)OC(C)(C)C)C(C)(C)C)C(=O)NS(=O)(=O)c1ccc(OC)cc1 (stereo partly drawn) [Compound 59] | < 50 nM | < 50 nM
C=CC1C[C@]1(NC(=O)[C@@H]1C[C@@H](Oc2cc(-c3ccccc3)nc3cc(OC)ccc23)CN1C(=O)C(NC(=O)OC(C)(C)C)C(C)(C)C)C(=O)NS(=O)(=O)c1ccc(C(C)(C)C)cc1 (stereo partly drawn) [Compound 60] | < 500 nM | < 500 nM
C=CC1C[C@]1(NC(=O)[C@@H]1C[C@@H](Oc2cc(-c3ccccc3)nc3cc(OC)ccc23)CN1C(=O)[C@@H](NC(=O)OC(C)(C)C)C(C)(C)C)C(=O)N[S+]([O-])C(C)(C)C (stereo partly drawn) [Compound 61] | < 5000 nM | < 500 nM
C=CC1C[C@]1(NC(=O)[C@@H]1C[C@@H](Oc2cc(-c3ccccc3)nc3cc(OC)ccc23)CN1C(=O)C(NC(=O)OC(C)(C)C)C(C)(C)C)C(=O)NS(=O)(=O)c1ccccc1C (stereo partly drawn) [Compound 63] | < 500 nM | < 50 nM
COc1ccc2c(O[C@@H]3C[C@@H](C(=O)NC4(C(=O)NS(=O)(=O)C5CC5)CC4)N(C(=O)[C@@H](NC(=O)OC(C)(C)C)C(C)(C)C)C3)cc(-c3ccccc3)nc2c1 [Compound 67] | < 5000 nM | < 50 nM
CCC(C)[C@H](NC(=O)OC(C)(C)C)C(=O)N1C[C@H](Oc2cc(-c3ccccc3)nc3cc(OC)ccc23)C[C@H]1C(=O)NC1(C(=O)NS(=O)(=O)C2CC2)CC1 (stereo partly drawn) [Compound 68] | < 5000 nM | < 50 nM
C=CC1CC1(NC(=O)OC(C)(C)C)C(=O)N1C[C@H](Oc2cc(-c3ccccc3)nc3cc(OC)ccc23)C[C@H]1C(=O)N[C@]1(C(=O)NS(=O)(=O)C2CC2)CC1CC (stereo partly drawn) [Compound 69] | < 500 nM | < 500 nM
C=CC1C[C@]1(NC(=O)[C@@H]1C[C@@H](Oc2cc(-c3ccccc3)nc3cc(OC)ccc23)CN1C(=O)[C@@H](NC(=O)OC(C)(C)C)C(C)C)C(=O)NS(=O)(=O)C1CCC1 (stereo partly drawn) [Compound 71] | < 50 nM | < 50 nM
C=CC1C[C@]1(NC(=O)[C@@H]1C[C@@H](Oc2cc(-c3ccccc3)nc3cc(OC)ccc23)CN1C(=O)[C@@H](NC(=O)OC(C)(C)C)C1CCCC1)C(=O)NS(=O)(=O)C1CCC1 (stereo partly drawn) [Compound 72] | < 500 nM | < 500 nM
C=CC1CC1(NC(=O)[C@@H]1C[C@@H](Oc2cc(-c3ccccc3)nc3cc(OC)ccc23)CN1C(=O)[C@@H](NC(=O)OC(C)(C)C)C(C)(C)C)C(=O)NS(C)(=O)=O (stereo partly drawn) [Compound 86] | < 500 nM | < 50 nM
C=CC1CC1(NC(=O)[C@@H]1C[C@@H](Oc2cc(-c3ccccc3)nc3cc(OC)ccc23)CN1C(=O)[C@@H](NC(=O)OC(C)(C)C)C(C)C)C(=O)NS(C)(=O)=O (stereo partly drawn) [Compound 89] | < 5000 nM | < 500 nM
C=CC1CC1(NC(=O)[C@@H]1C[C@@H](Oc2cc(-c3ccccc3)nc3cc(OC)ccc23)CN1C(=O)[C@@H](NC(=O)OC(C)(C)C)C(C)(C)C)C(=O)NS(=O)(=O)C1CC1 (stereo partly drawn) [Compound 91] | < 50 nM | < 50 nM
C=C[C@@H]1C[C@]1(NC(=O)C1C[C@@H](Oc2cc(-c3ccccc3)nc3cc(OC)ccc23)CN1C(=O)[C@@H](NC(C)=O)C(C)(C)C)C(=O)NS(=O)(=O)C1CC1 (stereo partly drawn) [Compound 98, 1-(2S-Acetylamino-3,3-dimethyl-butyryl)-4R-(7-methoxy-2-phenyl-quinolin-4-yloxy)-pyrrolidine-2S-carboxylic acid (1R-cyclopropanesulfonylaminocarbonyl-2S-vinyl-cyclopropyl)amide] | < 500 nM | < 50 nM

— patent US6872805B2 (Bristol-Myers Squibb Company, priority 2000, dated 2005)
